# According to patent publication US6559101B2, “N- (5, 7-dimethoxy [1, 2, 4] triazolo [1, 5-a] pyrimidin-2-yl) arylsulfonamide compounds and their use as herbicides” (Dow AgroSciences LLC, priority 2000, dated 2003):
# What was measured:
# Assay type in all cases: in vivo
# [1] = test system: giant foxtail (Setaria faberi); experiment: Preemergence herbicidal activity; settings: scored after 3 weeks, 0 no injury, 100 complete kill or no germination
# Outline: (§1)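 Pre-emergence test. Seeds sown, soil sprayed with compound (acetone/DMSO stock diluted in water + 0.1% Tween 155), top dose 4.48 kg/ha. Greenhouse ~15 h light, 23-29/22-28 °C day/night. Visual % injury vs untreated at 3 wk.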
# [2] = test system: blackgrass (Alopecurus myosuroides); experiment: Preemergence herbicidal activity; settings: scored after 3 weeks, 0 no injury, 100 complete kill or no germination
# Outline: as §1
# [3] = test system: wild poinsettia (Euphorbia heterophylla); experiment: Preemergence herbicidal activity; settings: scored after 3 weeks, 0 no injury, 100 complete kill or no germination
# Outline: as §1
# [4] = test system: cocklebur (Xanthium strumarium); experiment: Preemergence herbicidal activity; settings: scored after 3 weeks, 0 no injury, 100 complete kill or no germination
# Outline: as §1
# [5] = test system: barnyardgrass (Echinochloa crus-galli); experiment: Preemergence herbicidal activity; settings: scored after 3 weeks, 0 no injury, 100 complete kill or no germination
# Outline: as §1
# [6] = test system: Rox orange sorghum (Sorghum bicolor); experiment: Preemergence herbicidal activity; settings: scored after 3 weeks, 0 no injury, 100 complete kill or no germination
# Outline: as §1
# [7] = test system: pigweed (Amaranthus retroflexus); experiment: Preemergence herbicidal activity; settings: scored after 3 weeks, 0 no injury, 100 complete kill or no germination
# Outline: as §1
# [8] = test system: morningglory (Ipomoea hederacea); experiment: Preemergence herbicidal activity; settings: scored after 3 weeks, 0 no injury, 100 complete kill or no germination
# Outline: as §1
# wild oats (Avena fatua) [9] = experiment: Preemergence herbicidal activity; settings: scored after 3 weeks, 0 no injury, 100 complete kill or no germination
# Outline: as §1
# [10] = test system: velvetleaf (Abutilion theophrasti); experiment: Preemergence herbicidal activity; settings: scored after 3 weeks, 0 no injury, 100 complete kill or no germination
# Outline: as §1
# [11] = test system: crabgrass (Digitaria sanguinalis); experiment: Preemergence herbicidal activity; settings: scored after 3 weeks, 0 no injury, 100 complete kill or no germination
# Outline: as §1
# [12] = test system: lambsquarters (Chenopodium album); experiment: Preemergence herbicidal activity; settings: scored after 3 weeks, 0 no injury, 100 complete kill or no germination
# Outline: as §1
# [13] = test system: giant foxtail (Setaria faberi); experiment: Postemergence herbicidal activity; settings: scored after 2 weeks, 0 no injury, 100 complete kill
# Outline: (§2)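 Seedlings at first–second true leaf stage (grown 7-21 days, greenhouse 23-29° C. day) sprayed to coverage with compound in aqueous acetone/DMSO/isopropanol/crop oil/surfactant carrier; 1 ppm ≈ 1 g/ha. Sub-irrigated; injury scored visually after 2 weeks versus untreated plants, 0 (none) to 100% (complete kill).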
# [14] = test system: blackgrass (Alopecurus myosuroides); experiment: Postemergence herbicidal activity; settings: scored after 2 weeks, 0 no injury, 100 complete kill
# Outline: as §2
# [15] = test system: chickweed (Stellaria media); experiment: Postemergence herbicidal activity; settings: scored after 2 weeks, 0 no injury, 100 complete kill
# Outline: as §2
# [16] = test system: cocklebur (Xanthium strumarium); experiment: Postemergence herbicidal activity; settings: scored after 2 weeks, 0 no injury, 100 complete kill
# Outline: as §2
# [17] = test system: Rox orange sorghum (Sorghum bicolor); experiment: Postemergence herbicidal activity; settings: scored after 2 weeks, 0 no injury, 100 complete kill
# Outline: as §2
# [18] = test system: pigweed (Amaranthus retroflexus); experiment: Postemergence herbicidal activity; settings: scored after 2 weeks, 0 no injury, 100 complete kill
# Outline: as §2
# [19] = test system: morningglory (Ipomoea hederacea); experiment: Postemergence herbicidal activity; settings: scored after 2 weeks, 0 no injury, 100 complete kill
# Outline: as §2
# wild oats (Avena fatua) [20] = experiment: Postemergence herbicidal activity; settings: scored after 2 weeks, 0 no injury, 100 complete kill
# Outline: as §2
# [21] = test system: velvetleaf (Abutilion theophrasti); experiment: Postemergence herbicidal activity; settings: scored after 2 weeks, 0 no injury, 100 complete kill
# Outline: as §2
# viola (Viola tricolor) = experiment: Postemergence herbicidal activity; settings: scored after 2 weeks, 0 no injury, 100 complete kill
# Outline: as §2
# [22] = test system: lambsquarters (Chenopodium album); experiment: Postemergence herbicidal activity; settings: scored after 2 weeks, 0 no injury, 100 complete kill
# Outline: as §2
# [23] = test system: wild buckwheat (Polygonum convolvulus); experiment: Postemergence herbicidal activity; settings: scored after 2 weeks, 0 no injury, 100 complete kill
# Outline: as §2
smiles,measurement,setting,value
COc1cc(OC)n2nc(NS(=O)(=O)c3cc(Cl)ccc3OCCF)nc2n1 [Compound 13],Preemergence herbicidal activity SETFA,[1]; 35 g/Ha,95%
same,Preemergence herbicidal activity ALOMY,[2]; 35 g/Ha,95%
same,Preemergence herbicidal activity EPHHL,[3]; 35 g/Ha,50%
same,Preemergence herbicidal activity XANST,[4]; 35 g/Ha,50%
same,Preemergence herbicidal activity ECHCG,[5]; 35 g/Ha,80%
same,Preemergence herbicidal activity SORBI,[6]; 35 g/Ha,95%
same,Preemergence herbicidal activity AMARE,[7]; 35 g/Ha,95%
same,Preemergence herbicidal activity IPOHE,[8]; 35 g/Ha,50%
same,Preemergence herbicidal activity AVEFA,wild oats (Avena fatua) [9]; 35 g/Ha,85%
same,Preemergence herbicidal activity ABUTH,[10]; 35 g/Ha,60%
same,Preemergence herbicidal activity DIGSA,[11]; 35 g/Ha,100%
same,Preemergence herbicidal activity CHEAL,[12]; 35 g/Ha,95%
same,Postemergence herbicidal activity SETFA,[13]; 31.3 ppm,90%
same,Postemergence herbicidal activity ALOMY,[14]; 31.3 ppm,85%
same,Postemergence herbicidal activity STEME,[15]; 31.3 ppm,85%
same,Postemergence herbicidal activity XANST,[16]; 31.3 ppm,90%
same,Postemergence herbicidal activity SORBI,[17]; 31.3 ppm,90%
same,Postemergence herbicidal activity AMARE,[18]; 31.3 ppm,95%
same,Postemergence herbicidal activity IPOHE,[19]; 31.3 ppm,70%
same,Postemergence herbicidal activity AVEFA,wild oats (Avena fatua) [20]; 31.3 ppm,75%
same,Postemergence herbicidal activity ABUTH,[21]; 31.3 ppm,70%
same,Postemergence herbicidal activity VIOTR,viola (Viola tricolor); 31.3 ppm,80%
same,Postemergence herbicidal activity CHEAL,[22]; 31.3 ppm,70%
same,Postemergence herbicidal activity POLCO,[23]; 31.3 ppm,80%
"CCOc1cccc(C(F)(F)F)c1S(=O)(=O)Nc1nc2nc(OC)cc(OC)n2n1 [Compound 14, N-(5,7-dimethoxy[1,2,4]triazolo[1,5-a]-pyrimidin-2-yl)-2-ethoxy-6-(trifluoromethyl)benzenesulfonamide]",Preemergence herbicidal activity SETFA,[1]; 17.5 g/Ha,85%
same,Preemergence herbicidal activity ALOMY,[2]; 17.5 g/Ha,80%
same,Preemergence herbicidal activity EPHHL,[3]; 17.5 g/Ha,85%
same,Preemergence herbicidal activity XANST,[4]; 17.5 g/Ha,70%
same,Preemergence herbicidal activity ECHCG,[5]; 17.5 g/Ha,80%
same,Preemergence herbicidal activity SORBI,[6]; 17.5 g/Ha,85%
same,Preemergence herbicidal activity AMARE,[7]; 17.5 g/Ha,95%
same,Preemergence herbicidal activity IPOHE,[8]; 17.5 g/Ha,75%
same,Preemergence herbicidal activity AVEFA,wild oats (Avena fatua) [9]; 17.5 g/Ha,60%
same,Preemergence herbicidal activity ABUTH,[10]; 17.5 g/Ha,85%
same,Preemergence herbicidal activity DIGSA,[11]; 17.5 g/Ha,80%
same,Preemergence herbicidal activity CHEAL,[12]; 17.5 g/Ha,95%
same,Postemergence herbicidal activity SETFA,[13]; 7.8 ppm,90%
same,Postemergence herbicidal activity ALOMY,[14]; 7.8 ppm,70%
same,Postemergence herbicidal activity STEME,[15]; 7.8 ppm,98%
same,Postemergence herbicidal activity XANST,[16]; 7.8 ppm,100%
same,Postemergence herbicidal activity SORBI,[17]; 7.8 ppm,70%
same,Postemergence herbicidal activity AMARE,[18]; 7.8 ppm,100%
same,Postemergence herbicidal activity IPOHE,[19]; 7.8 ppm,80%
same,Postemergence herbicidal activity AVEFA,wild oats (Avena fatua) [20]; 7.8 ppm,50%
same,Postemergence herbicidal activity ABUTH,[21]; 7.8 ppm,90%
same,Postemergence herbicidal activity VIOTR,viola (Viola tricolor); 7.8 ppm,90%
same,Postemergence herbicidal activity CHEAL,[22]; 7.8 ppm,100%
same,Postemergence herbicidal activity POLCO,[23]; 7.8 ppm,90%
CCOc1nccc(C(F)(F)F)c1S(=O)(=O)Nc1nc2nc(OC)cc(OC)n2n1 [Compound 19],Preemergence herbicidal activity SETFA,[1]; 35 g/Ha,30%
same,Preemergence herbicidal activity ALOMY,[2]; 35 g/Ha,100%
same,Preemergence herbicidal activity EPHHL,[3]; 35 g/Ha,50%
same,Preemergence herbicidal activity XANST,[4]; 35 g/Ha,85%
same,Preemergence herbicidal activity ECHCG,[5]; 35 g/Ha,70%
same,Preemergence herbicidal activity SORBI,[6]; 35 g/Ha,60%
same,Preemergence herbicidal activity AMARE,[7]; 35 g/Ha,100%
same,Preemergence herbicidal activity IPOHE,[8]; 35 g/Ha,50%
same,Preemergence herbicidal activity AVEFA,wild oats (Avena fatua) [9]; 35 g/Ha,60%
same,Preemergence herbicidal activity ABUTH,[10]; 35 g/Ha,80%
same,Preemergence herbicidal activity DIGSA,[11]; 35 g/Ha,80%
same,Preemergence herbicidal activity CHEAL,[12]; 35 g/Ha,100%
same,Postemergence herbicidal activity SETFA,[13]; 15.6 ppm,60%
same,Postemergence herbicidal activity ALOMY,[14]; 15.6 ppm,80%
same,Postemergence herbicidal activity STEME,[15]; 15.6 ppm,95%
same,Postemergence herbicidal activity XANST,[16]; 15.6 ppm,90%
same,Postemergence herbicidal activity SORBI,[17]; 15.6 ppm,50%
same,Postemergence herbicidal activity AMARE,[18]; 15.6 ppm,90%
same,Postemergence herbicidal activity IPOHE,[19]; 15.6 ppm,75%
same,Postemergence herbicidal activity AVEFA,wild oats (Avena fatua) [20]; 15.6 ppm,50%
same,Postemergence herbicidal activity ABUTH,[21]; 15.6 ppm,75%
same,Postemergence herbicidal activity VIOTR,viola (Viola tricolor); 15.6 ppm,90%
same,Postemergence herbicidal activity CHEAL,[22]; 15.6 ppm,95%
same,Postemergence herbicidal activity POLCO,[23]; 15.6 ppm,90%
COc1cc(OC)n2nc(NS(=O)(=O)c3c(OCC(F)(F)F)cccc3C(F)(F)F)nc2n1 [Compound 12],Preemergence herbicidal activity SETFA,[1]; 17.5 g/Ha,90%
same,Preemergence herbicidal activity ALOMY,[2]; 17.5 g/Ha,70%
same,Preemergence herbicidal activity EPHHL,[3]; 17.5 g/Ha,90%
same,Preemergence herbicidal activity XANST,[4]; 17.5 g/Ha,80%
same,Preemergence herbicidal activity ECHCG,[5]; 17.5 g/Ha,100%
same,Preemergence herbicidal activity SORBI,[6]; 17.5 g/Ha,98%
same,Preemergence herbicidal activity AMARE,[7]; 17.5 g/Ha,98%
same,Preemergence herbicidal activity IPOHE,[8]; 17.5 g/Ha,90%
same,Preemergence herbicidal activity AVEFA,wild oats (Avena fatua) [9]; 17.5 g/Ha,30%
same,Preemergence herbicidal activity ABUTH,[10]; 17.5 g/Ha,70%
same,Preemergence herbicidal activity DIGSA,[11]; 17.5 g/Ha,80%
same,Preemergence herbicidal activity CHEAL,[12]; 17.5 g/Ha,100%
same,Postemergence herbicidal activity SETFA,[13]; 62.5 ppm,98%
same,Postemergence herbicidal activity ALOMY,[14]; 62.5 ppm,60%
same,Postemergence herbicidal activity STEME,[15]; 62.5 ppm,90%
same,Postemergence herbicidal activity XANST,[16]; 62.5 ppm,100%
same,Postemergence herbicidal activity SORBI,[17]; 62.5 ppm,90%
same,Postemergence herbicidal activity AMARE,[18]; 62.5 ppm,100%
same,Postemergence herbicidal activity IPOHE,[19]; 62.5 ppm,98%
same,Postemergence herbicidal activity AVEFA,wild oats (Avena fatua) [20]; 62.5 ppm,70%
same,Postemergence herbicidal activity ABUTH,[21]; 62.5 ppm,98%
same,Postemergence herbicidal activity VIOTR,viola (Viola tricolor); 62.5 ppm,100%
same,Postemergence herbicidal activity CHEAL,[22]; 62.5 ppm,100%
same,Postemergence herbicidal activity POLCO,[23]; 62.5 ppm,98%
COc1cc(OC)n2nc(NS(=O)(=O)c3c(I)ccnc3OC)nc2n1 [Compound 17],Preemergence herbicidal activity SETFA,[1]; 17.5 g/Ha,100%
same,Preemergence herbicidal activity ALOMY,[2]; 17.5 g/Ha,99%
same,Preemergence herbicidal activity EPHHL,[3]; 17.5 g/Ha,100%
same,Preemergence herbicidal activity XANST,[4]; 17.5 g/Ha,65%
same,Preemergence herbicidal activity ECHCG,[5]; 17.5 g/Ha,100%
same,Preemergence herbicidal activity SORBI,[6]; 17.5 g/Ha,99%
same,Preemergence herbicidal activity AMARE,[7]; 17.5 g/Ha,100%
same,Preemergence herbicidal activity IPOHE,[8]; 17.5 g/Ha,60%
same,Preemergence herbicidal activity AVEFA,wild oats (Avena fatua) [9]; 17.5 g/Ha,90%
same,Preemergence herbicidal activity ABUTH,[10]; 17.5 g/Ha,75%
same,Preemergence herbicidal activity DIGSA,[11]; 17.5 g/Ha,100%
same,Preemergence herbicidal activity CHEAL,[12]; 17.5 g/Ha,100%
same,Postemergence herbicidal activity SETFA,[13]; 15.6 ppm,90%
same,Postemergence herbicidal activity ALOMY,[14]; 15.6 ppm,90%
same,Postemergence herbicidal activity STEME,[15]; 15.6 ppm,75%
same,Postemergence herbicidal activity XANST,[16]; 15.6 ppm,90%
same,Postemergence herbicidal activity SORBI,[17]; 15.6 ppm,90%
same,Postemergence herbicidal activity AMARE,[18]; 15.6 ppm,100%
same,Postemergence herbicidal activity IPOHE,[19]; 15.6 ppm,70%
same,Postemergence herbicidal activity AVEFA,wild oats (Avena fatua) [20]; 15.6 ppm,90%
same,Postemergence herbicidal activity ABUTH,[21]; 15.6 ppm,78%
same,Postemergence herbicidal activity VIOTR,viola (Viola tricolor); 15.6 ppm,98%
same,Postemergence herbicidal activity CHEAL,[22]; 15.6 ppm,100%
same,Postemergence herbicidal activity POLCO,[23]; 15.6 ppm,75%
